Patent US20130090334A1, “AZABENZOXAZINE DERIVATIVES AS CRAC MODULATORS” (Hoffmann-La Roche Inc, priority 2011, published 2013)

Each molecule was assayed on Jurkat cell (assay: Jurkat IL-2 Production Assay). Conditions: Homo sapiens, serum condition (1% FBS/PHA or 30% FBS/PMA-ionomycin) not specified.
Type: cell-based
Method: Jurkat IL-2 Production Assay
Cell: Jurkat cell (ATCC) was grown in RPMI 1640 with 10% FBS and 1% penicillin/streptomycin. The cell density was kept at 1.2˜18×10^6/mL in culture flask before seeding into culture plate, and the cell density in the plate was 0.5×10^6/200 μL/well.
Culture media: RPMI 1640 with 1% FBS or 30% FBS for high serum assay.
Test compound: serial dilution was done in 100% DMSO, and intermediate dilution was done with RPMI 1640 medium with 1% FBS. The DMSO final concentration in culture well was 0.25%.
Stimulant: PHA (Sigma#L9017-10MG) was used for the assay with 1% F/BS in culture medium, and added after 10 minutes exposure of cell to compound/DMSO. The PHA final concentration in culture well was 5 μg/mL. PMA (Sigma#P-8139 5MG)/Ionomycin (Sigma# I0634-5MG) was used for the assay with 30% FBS in culture medium, and added at same time point as the 1% FBS culture assay. The final concentration of PMA was […], and lonomycin final concentration was 500 ng/mL.
Incubation: at 37° C. with 5% CO2 and 95% humidity for 18 h˜20 h.
IC50: IC50 was calculated with the data analysis software XLfit4, General Pharmacology model 251.

IC50	SMILES
140 nM	CCn1nc(C(F)(F)F)cc1-c1cnc2c(c1)OCC(c1c(F)cccc1F)N2 (stereo not shown) [Example 1, 3-(2,6-Difluoro-phenyl)-7-(2-ethyl-5-trifluoromethyl-2H-pyrazol-3-yl)-3,4-dihydro-2H-pyrido[3,2-b][1,4]oxazine]

These molecules were tested on human whole blood (assay: Human Whole Blood (HWB) Assay, inhibition of T cell IL-2 production). Conditions: IL-2 in plasma, human whole blood stimulated with 10 μM Thapsigargin overnight, AlphaLISA.
Type: cell-based
Method: Human Whole Blood (HWB) Assay
Inhibition of T cell IL-2 production CRAC compounds were tested in human whole blood from normal donors. 200 μl of human whole blood was aliquoted into each well of a round bottom 96 well plate. Concentration-response curves were generated for test compounds and CsA (as controls) by performing serial dilutions of the compounds and incubating each concentration in a single well for 30 min (experiment was performed in triplicate). Following incubation, the blood was stimulated with 10 μM Thapsigargin (SIGMA) overnight at 37° C. IL-2 concentrations in the plasma were determined by AlphaLISA IL-2 assay (Perkin Elmer). Data analysis was performed using GraphPad PRISM5.

IC50	SMILES
2680 nM	CCn1nc(-c2cccnc2)cc1-c1cnc2c(c1)OCC(c1c(F)cccc1F)N2 (stereo not shown) [Example 2, 3-(2,6-Difluoro-phenyl)-7-(2-ethyl-5-pyridin-3-yl-2H-pyrazol-3-yl)-3,4-dihydro-2H-pyrido[3,2-b][1,4]oxazine]
2400 nM	CCn1nc(-c2cnccn2)cc1-c1cnc2c(c1)OCC(c1c(F)cccc1F)N2 (stereo not shown) [Example 3, 3-(2,6-Difluoro-phenyl)-7-(2-ethyl-5-pyrazin-2-yl-2H-pyrazol-3-yl)-3,4-dihydro-2H-pyrido[3,2-b][1,4]oxazine]
6300 nM	Cc1sc(-c2ccccn2)nc1-c1cnc2c(c1)OCC(c1c(F)cccc1F)N2 (stereo not shown) [Example 4, 3-(2,6-Difluoro-phenyl)-7-(5-methyl-2-pyridin-2-yl-thiazol-4-yl)-3,4-dihydro-2H-pyrido[3,2-b][1,4]oxazine]
560 nM	CCc1sc(-c2cccnc2)nc1-c1cnc2c(c1)OCC(c1c(F)cccc1F)N2 (stereo not shown) [Example 5, 3-(2,6-Difluoro-phenyl)-7-(5-ethyl-2-pyridin-3-yl-thiazol-4-yl)-3,4-dihydro-2H-pyrido[3,2-b][1,4]oxazine]
4520 nM	Cc1sc(-c2ccncc2)nc1-c1cnc2c(c1)OCC(c1c(F)cccc1F)N2 (stereo not shown) [Example 6, 3-(2,6-Difluoro-phenyl)-7-(5-methyl-2-pyridin-4-yl-thiazol-4-yl)-3,4-dihydro-2H-pyrido[3,2-b][1,4]oxazine]
8160 nM	Cc1ccc(-c2ncco2)cc1-c1cnc2c(c1)OCC(c1c(F)cccc1F)N2 (stereo not shown) [Example 7, 3-(2,6-Difluoro-phenyl)-7-(2-methyl-5-oxazol-2-yl-phenyl)-3,4-dihydro-2H-pyrido[3,2-b][1,4]oxazine]
